Source: patent US20020099073A1, “Modulators of protein tyrosine phosphatases (PTPases)” (priority 2000, published 2002)

Target: T1, truncated form of PTP1B (corresponding to the first 321 amino acids) (Homo sapiens, UniProt P18031)
T1 construct: truncated form of PTP1B (corresponding to the first 321 amino acids); made in house; host or cells: E. coli
T1 sequence (P18031 1-321): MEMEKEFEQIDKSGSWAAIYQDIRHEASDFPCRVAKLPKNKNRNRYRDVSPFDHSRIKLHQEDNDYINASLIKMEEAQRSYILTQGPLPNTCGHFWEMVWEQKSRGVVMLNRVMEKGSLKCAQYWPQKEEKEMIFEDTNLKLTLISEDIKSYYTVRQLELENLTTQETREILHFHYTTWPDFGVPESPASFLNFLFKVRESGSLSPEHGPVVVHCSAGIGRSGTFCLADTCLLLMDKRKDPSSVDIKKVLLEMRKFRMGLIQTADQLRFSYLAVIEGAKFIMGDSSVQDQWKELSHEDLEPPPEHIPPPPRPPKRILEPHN
Assay: Inhibition of PTP1B, p-nitrophenyl phosphate substrate
Format: biochemical
Settings: substrate p-nitrophenyl phosphate 0.16 to 10 mM; 100 mM sodium acetate pH 5.5; 25° C. for 60 minutes; absorbance at 405 nm
Experimental: The compounds are evaluated for biological activity with a truncated form of PTP1B (corresponding to the first 321 amino acids), which was expressed in E. coli and purified to apparent homogeneity using published procedures well-known to those skilled in the art. The enzyme reactions are carried out using standard conditions essentially as described by Burke et al. (Biochemistry 35; 15989-15996 (1996)). The assay conditions are as follows. Appropriate concentrations of the compounds of the invention are added to the reaction mixtures containing different concentrations of the substrate, p-nitrophenyl phosphate (range: 0.16 to 10 mM—final assay concentration). The buffer used was 100 mM sodium acetate pH 5.5, 50 mM sodium chloride, 0.1% (w/v) bovine serum albumin and 5 mM dithiothreitol (total volume […]). The reaction was started by addition of the enzyme and carried out in microtiter plates at 25° C. for 60 minutes. The reactions are stopped by addition of NaOH. The enzyme activity was determined by measurement of the absorbance at 405 nm with appropriate corrections for absorbance at 405 nm of the compounds and p-nitrophenyl phosphate. The data are analyzed using nonlinear regression fit to classical Michaelis Menten enzyme kinetic models. Inhibition is expressed as Ki values in μM.

Row | Molecule | Ki
1 | 5-(Benzyloxycarbonylamino-methyl)-2-(oxalyl-amino)-4,5,6,7-tetrahydro-thieno[2,3-c]pyridine-3-carboxylic acid and 7-(benzyloxycarbonylamino-methyl)-2-(oxalyl-amino)-4,5,6,7-tetrahydro-thieno[2,3-c]pyridine-3-carboxylic Acid [Example 17] | 1500 nM
2 | COc1ccc(CN2Cc3sc(NC(=O)C(=O)O)c(C(=O)O)c3CC2CNC(=O)c2cc(-c3ccc(C)cc3)nc3ccc(Br)cc23)cc1 (centres unmarked) [Example 2, 5-(((6-Bromo-2-p-tolyl-quinoline-4-carbonyl)amino)methyl)-6-(4-methoxy-benzyl)-2-(oxalyl-amino)-4,5,6,7-tetrahydro-thieno[2,3-c]pyridine-3-carboxylic Acid] | 100000 nM
3 | COc1ccc(CN2Cc3sc(NC(=O)C(=O)O)c(C(=O)O)c3CC2CNC(=O)c2cc3cc(OCc4ccccc4)ccc3[nH]2)cc1 (centres unmarked) [Example 3, 5-(((5-Benzyloxy-1H-indole-2-carbonyl)amino)methyl)-6-(4-methoxy-benzyl)-2-(oxalyl-amino)-4,5,6,7-tetrahydro-thieno[2,3-c]pyridine-3-carboxylic Acid] | 4300 nM
4 | COc1ccc(CN2Cc3sc(NC(=O)C(=O)O)c(C(=O)O)c3CC2CNC(=O)c2ccc(NC(=O)c3ccccc3)cc2)cc1 (centres unmarked) [Example 4] | 3000 nM
5 | COc1ccc(CN2Cc3sc(NC(=O)C(=O)O)c(C(=O)O)c3CC2CNC(=O)c2nn(-c3ccccc3)nc2C)cc1 (centres unmarked) [Example 6, 6-(4-Methoxy-benzyl)-5-(((5-methyl-2-phenyl-2H-[1,2,3]triazole-4-carbonyl)-amino)methyl)-2-(oxalyl-amino)-4,5,6,7-tetrahydro-thieno[2,3-c]pyridine-3-carboxylic Acid] | 20000 nM
6 | O=C(O)C(=O)Nc1sc2c(c1C(=O)O)CC(CNC(=O)c1ccc(-c3ccccc3)cc1)NC2 (centres unmarked) [Example 9, 5-(((Biphenyl-4-carbonyl)amino)methyl)-2-(oxalyl-amino)-4,5,6,7-tetrahydro-thieno[2,3-c]pyridine-3-carboxylic Acid] | 220 nM
7 | CCOc1ccc(C(=O)NCC2Cc3c(sc(NC(=O)C(=O)O)c3C(=O)O)CN2)c(O)c1 (centres unmarked) [Example 10, 5-((4-Ethoxy-2-hydroxy-benzoylamino)methyl)-2-(oxalyl-amino)-4,5,6,7-tetrahydro-thieno[2,3-c]pyridine-3-carboxylic Acid] | 340 nM
8 | O=C(O)C(=O)Nc1sc2c(c1C(=O)O)CC(CNC(=O)c1cc3ccccc3[nH]1)NC2 (centres unmarked) [Example 14] | 670 nM
9 | O=C(O)C(=O)Nc1sc2c(c1C(=O)O)CC(CNC(=O)c1cccc(O)c1)NC2 (centres unmarked) [Example 19, 5-((3-Hydroxy-benzoylamino)methyl)-2-(oxalyl-amino)-4,5,6,7-tetrahydro-thieno[2,3-c]Pyridine-3-carboxylic Acid] | 950 nM
10 | O=C(O)C(=O)Nc1sc2c(c1C(=O)O)C[C@@H](CNC(=O)c1cc3ccccc3cc1O)NC2 [Example 24, 5-(S)-(((3-Hydroxy-naphthalene-2-carbonyl)amino)methyl)-2-(oxalyl-amino) 4,5,6,7-tetrahydro-thieno[2,3-c]pyridine-3-carboxylic Acid] | 220 nM
11 | O=C(NC[C@@H]1Cc2c(sc(NC(=O)C(=O)O)c2C(=O)O)CN1)Nc1ccc(Oc2ccccc2)cc1 [Example 27, 2-(Oxalyl-amino)-5-(S)-(3-(4-phenoxy-phenyl)ureidomethyl)-4,5,6,7-tetrahydro-thieno[2,3-c]pyridin-3-carboxylic Acid] | 200 nM
12 | CC(=O)Nc1ccc(S(=O)(=O)NC[C@@H]2Cc3c(sc(NC(=O)C(=O)O)c3C(=O)O)CN2)cc1 [Example 29, 5-(S)-((4-Acetylamino-benzenesulfonylamino)methyl)-2-(oxalyl-amino)-4,5,6,7-tetrahydro-thieno[2,3-c]pyridine-3-carboxylic Acid] | 130 nM

More lines, in order of falling Ki, values ahead:

Row | Ki | Molecule
13 | 20000 nM | COc1ccc(CN2Cc3sc(NC(=O)C(=O)O)c(C(=O)O)c3CC2CNC(=O)c2cccc3ccccc23)cc1 (centres unmarked) [Example 16, 6-(4-Methoxybenzyl)-5-(((naphthalene-1-carbonyl)amino)methyl)-2-(oxalyl-amino)-4,5,6,7-tetrahydro-thieno[2,3-c]pyridine-3-carboxylic Acid]
14 | 3500 nM | CC(=O)Nc1ccc(S(=O)(=O)NC[C@H]2Cc3c(sc(NC(=O)C(=O)O)c3C(=O)O)CN2)cc1 [Example 28, 5-(R)-((4-Acetylamino-benzenesulfonylamino)methyl)-2-(oxalyl-amino)-4,5,6,7-tetrahydro-thieno[2,3-c]pyridine-3-carboxylic Acid]
15 | 3200 nM | O=C(O)C(=O)Nc1sc2c(c1C(=O)O)C[C@H](CNC(=O)c1ccc(NC(=O)c3ccccc3)cc1)NC2 [Example 22, 5-(R)-((4-Benzoylamino-benzoylamino)methyl)-2-(oxalyl-amino)-4,5,6,7-tetrahydro-thieno[2,3-c]pyridine-3-carboxylic Acid]
16 | 1500 nM | Cc1nn(-c2ccccc2)nc1C(=O)NCC1Cc2c(sc(NC(=O)C(=O)O)c2C(=O)O)CN1 (centres unmarked) [Example 11, 5-(((5-Methyl-2-phenyl-2H-[1,2,3]triazole-4-carbonyl)amino]methyl)-2-(oxalyl-amino)-4,5,6,7-tetrahydro-thieno[2,3-c]pyridin-3-carboxylic Acid]
17 | 680 nM | O=C(O)C(=O)Nc1sc2c(c1C(=O)O)CC(CNC(=O)c1ccccc1O)NC2 (centres unmarked) [Example 18, 5-((2-Hydroxy-benzoylamino)-methyl)-2-(oxalyl-amino)-4,5,6,7-tetrahydro-thieno[2,3-c]pyridine-3-carboxylic Acid]
18 | 520 nM | O=C(O)C(=O)Nc1sc2c(c1C(=O)O)CC(CNC(=O)c1ccccc1)NC2 (centres unmarked) [Example 1, 5-(Benzoylamino-methyl)-2-(oxalyl-amino)-4,5,6,7-tetrahydro-thieno[2,3-c]Pyridine-3-carboxylic Acid]
19 | 270 nM | O=C(O)C(=O)Nc1sc2c(c1C(=O)O)C[C@@H](CNC(=O)c1cccc(Oc3ccccc3)c1)NC2 [Example 20, 2-(Oxalyl-amino)-5-(S)-((3-phenoxy-benzoylamino)methyl)-4,5,6,7-tetrahydro-thieno[2,3-c]pyridine-3-carboxylic Acid]
20 | 250 nM | O=C(O)C(=O)Nc1sc2c(c1C(=O)O)CC(CNC(=O)c1ccc(NC(=O)c3ccccc3)cc1)NC2 (centres unmarked) [Example 5, 5-((4-Benzoylamino-benzoylamino)methyl)-2-(oxalyl-amino)-4,5,6,7-tetrahydro-thieno[2,3-c]pyridine-3-carboxylic Acid]
21 | 210 nM | COc1ccc2cc(O)c(C(=O)NC[C@@H]3Cc4c(sc(NC(=O)C(=O)O)c4C(=O)O)CN3)cc2c1 [Example 25, 5-(S)-(((3-Hydroxy-7-methoxy-naphthalene-2-carbonyl)amino)methyl)-2-(oxalyl-amino)-4,5,6,7-tetrahydro-thieno[2,3-c]pyridine-3-carboxylic Acid]
22 | 160 nM | O=C(O)C(=O)Nc1sc2c(c1C(=O)O)C[C@@H](CNC(=O)c1ccc(NC(=O)c3ccccc3)cc1)NC2 [Example 21, 5-((4-Benzoylamino-benzoylamino)methyl)-2-(oxalyl-amino)-4,5,6,7-tetrahydro-thieno[2,3-c]pyridine-3-carboxylic Acid]
23 | 150 nM | O=C(O)C(=O)Nc1sc2c(c1C(=O)O)C[C@@H](CNC(=O)c1ccc3ccccc3c1O)NC2 [Example 23, 5-(S)-(((1-Hydroxy-naphthalene-2-carbonyl)amino)methyl)-2-(oxalyl-amino)-4,5,6,7-tetrahydro-thieno[2,3-c]pyridine-3-carboxylic Acid]
